Data: the supplement of paper PMC5908809

Key:
[1] = tested on: NK-92 (IL-2 2.5 ng/mL); assay: drug sensitivity score (DSS) (DSS units); higher = more sensitive; extreme values may be limits of the assay; details: 72 h
[2] = tested on: normal primary NK cells, pool 1 (3 donors), resting (IL-2 0 ng/mL); assay: as above; details: 72 h
[3] = tested on: KAI3 (IL-2 2.5 ng/mL); assay: as above; details: 72 h
[4] = tested on: normal primary NK cells, pool 2 (3 donors) (IL-2 2.5 ng/mL); assay: as above; details: 72 h
[5] = tested on: NKL (IL-2 2.5 ng/mL); assay: as above; details: 72 h
[6] = tested on: normal primary NK cells, pool 1 (3 donors) (IL-2 2.5 ng/mL); assay: as above; details: 72 h
[7] = tested on: DERL-7 (IL-2 2.5 ng/mL); assay: as above; details: 72 h
[8] = tested on: KHYG-1 (IL-2 2.5 ng/mL); assay: as above; details: 72 h
[9] = tested on: YT (IL-2 2.5 ng/mL); assay: as above; details: 72 h
[10] = tested on: normal primary NK cells, pool 3 (3 donors) (IL-2 2.5 ng/mL); assay: as above; details: 72 h
[11] = tested on: NK-YS (IL-2 2.5 ng/mL); assay: as above; details: 72 h
[12] = tested on: SNK-6 (IL-2 2.5 ng/mL); assay: as above; details: 72 h
[13] = tested on: IMC-1 (IL-2 20 ng/mL); assay: as above; details: 72 h
[14] = tested on: normal NK cells expanded with K562-aAPC; assay: percent inhibition of viability; higher = more inhibition; details: 72 h, IL-2 2.5 ng/mL
Procedure: (§1)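 Drug sensitivity and resistance testing on K562-aAPC-expanded normal NK cells: 5 concentrations (10-fold steps over a 10,000-fold range), 72 h at 37 °C, viability by CellTiter-Glo normalised to DMSO and benzethonium chloride controls; DSS from the fitted curve.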

[15] = tested on: normal NK cells expanded with K562-aAPC; assay: drug sensitivity score (DSS) (DSS units); higher = more sensitive; extreme values may be limits of the assay; details: 72 h; IL-2 2.5 ng/mL
Procedure: as §1

[16] = tested on: NK-92 (IL-2 2.5 ng/mL); assay: percent inhibition of viability; higher = more inhibition; details: 72 h
[17] = tested on: normal primary NK cells, pool 1 (3 donors), resting (IL-2 0 ng/mL); assay: as above; details: 72 h
[18] = tested on: KAI3 (IL-2 2.5 ng/mL); assay: as above; details: 72 h
[19] = tested on: normal primary NK cells, pool 2 (3 donors) (IL-2 2.5 ng/mL); assay: as above; details: 72 h
[20] = tested on: NKL (IL-2 2.5 ng/mL); assay: as above; details: 72 h
[21] = tested on: normal primary NK cells, pool 1 (3 donors) (IL-2 2.5 ng/mL); assay: as above; details: 72 h
[22] = tested on: DERL-7 (IL-2 2.5 ng/mL); assay: as above; details: 72 h
[23] = tested on: KHYG-1 (IL-2 2.5 ng/mL); assay: as above; details: 72 h
[24] = tested on: YT (IL-2 2.5 ng/mL); assay: as above; details: 72 h
[25] = tested on: normal primary NK cells, pool 3 (3 donors) (IL-2 2.5 ng/mL); assay: as above; details: 72 h
[26] = tested on: NK-YS (IL-2 2.5 ng/mL); assay: as above; details: 72 h
[27] = tested on: SNK-6 (IL-2 2.5 ng/mL); assay: as above; details: 72 h
[28] = tested on: IMC-1 (IL-2 20 ng/mL); assay: as above; details: 72 h

Nc1nc(Nc2ccc3c(c2)CC[C@@H](N2CCCC2)CC3)nn1-c1cc2c(nn1)-c1ccccc1CCC2 [BGB324] (max concentration tested 10000 nM)
Details	drug sensitivity score
[1]	11.6
[2]	16
[3]	11.2
[4]	11.3
[5]	14.8
[6]	13.2
[7]	14.7
[8]	12.5
[9]	7.38
[10]	9.12
[11]	7.94
[12]	10.3
[13]	5.23
[15]	8.94

percent inhibition of viability [%]
Details	1 nM	10 nM	100 nM	1000 nM	10000 nM
[14]	-3.36	-11.5	-1.93	21.5	99.9
[16]	-4.37	-8.81	-0.92	49	102
[17]	7.14	3.63	5.02	83.6	99.8
[18]	-3.31	-2.86	2.2	43.9	101
[19]	-7.98	-0.57	-5.73	45.8	100
[20]	6.99	-6.74	6.47	73.7	102
[21]	-3.33	-4.6	-5.97	66.2	99.8
[22]	1.87	-0.37	13.9	68	101
[23]	-2.69	-1.76	3.04	59	103
[24]	-0.88	-5.6	-1.23	11	101
[25]	-9.08	-10.5	-10.5	23.1	99.8
[26]	-2.01	-2.03	0.13	14.3	101
[27]	12.8	12.3	-18.1	34.5	99.7
[28]	-1.43	-0.15	0.68	-4.19	99.9

CCC(C)(C)C(=O)O[C@H]1C[C@@H](C)C=C2C=C[C@H](C)[C@H](CC[C@@H]3C[C@@H](O)CC(=O)O3)[C@H]21 [Simvastatin] (max concentration tested 10000 nM)
Details	drug sensitivity score
[1]	0
[2]	0.04
[3]	0.61
[4]	1.89
[5]	4.74
[6]	0
[7]	0
[8]	0
[9]	1.26
[10]	0
[11]	4.82
[12]	0
[13]	2.48
[15]	0

percent inhibition of viability [%]
Details	1 nM	10 nM	100 nM	1000 nM	10000 nM
[14]	0.17	-4.47	-1.19	-2.06	6.89
[16]	-8.62	-9.55	2.91	-5.14	-1.54
[17]	-0.52	-1.88	-12.8	-6.51	13.3
[18]	3.02	-8.09	-7.7	-3.05	22.5
[19]	-9.03	-7.28	-6.35	14.3	19.6
[20]	-16.6	-8.92	0.63	6	68.9
[21]	-7.84	9.33	-16.5	-3.95	8.72
[22]	-1.97	-3.51	4.88	4.07	10.3
[23]	2.27	-0.82	3.03	5.63	11.2
[24]	0.42	-0.1	0.72	2.62	23.9
[25]	-9.67	-10.8	-5.99	4.87	2.32
[26]	-1.72	2.03	2	6.51	68.6
[27]	4.57	-0.33	6.13	-5.3	1.07
[28]	-0.2	-3.36	3.54	3.84	38.1
